Source: ChEMBL document CHEMBL1157868, “Synthesis and antiviral activity of an imidazo[1,2-a]pyrrolo[2,3-c]pyridine series against the bovine viral diarrhea virus” (Eur J Med Chem, 2010)

Experiments:
[1] = Selectivity index, CC50 for MDBK cells to EC50 for Bovine viral diarrhea virus; format: toxicity, cell-based; conditions: cattle, read-out: Ratio CC50/EC50
[2] = test system: Bovine viral diarrhea virus 1; assay: Antiviral activity against Bovine viral diarrhea virus infected in MDBK cells assessed as protection against virus-induced cytopathogenicity after 5 days; format: functional, organism-based; conditions: Bovine viral diarrhea virus isolates and strains, 120 h
[3] = Cytotoxicity against MDBK cells; format: cell-based, Bos taurus; conditions: cattle

| EC50 [2] | SMILES | selectivity ratio [1] | CC50 [3] |
| --- | --- | --- | --- |
| 21.8 µM | CCOC(=O)c1cc2c(ccn3cc(C=O)nc23)[nH]1 | > 4.6 | > 100 µM |
| 1.7 µM | COC(=O)c1cc2c(ccn3cc(C)nc23)n1C | > 60.6 | > 100 µM |
| 2.1 µM | CCCCOC(=O)c1cc2c(ccn3cc(C)nc23)[nH]1 | 41.8 | 89.8 µM |
| 64.8 µM | CCOC(=O)c1cc2c(ccn3c([N+](=O)[O-])c(C)nc23)[nH]1 | > 1.5 | > 100 µM |
| 46.5 µM | CCOC(=O)c1cc2c(ccn3cc(CN(C)C)nc23)[nH]1 | > 2.2 | > 100 µM |
| 1.1 µM | COC(=O)c1cc2c(ccn3cc(C)nc23)[nH]1 | > 87.2 | > 100 µM |
| 47.6 µM | CCOC(=O)c1cc2c(ccn3cc(CCl)nc23)[nH]1 | > 2.1 | > 100 µM |
| 12.8 µM | CCOC(=O)c1cc2c(ccn3cc(C(F)(F)F)nc23)[nH]1 | > 7.8 | > 100 µM |
| 2.1 µM | CCOC(=O)c1cc2c(ccn3cc(C)nc23)[nH]1 | > 47.6 | > 100 µM |
| 5.1 µM | Cc1cn2ccc3[nH]c(C(=O)O)cc3c2n1 | > 19.6 | > 100 µM |

More lines, now with the values behind:

| SMILES | EC50 [2] | selectivity ratio [1] | CC50 [3] |
| --- | --- | --- | --- |
| CCOC(=O)c1cc2c(ccn3cc(C(OCC)OCC)nc23)[nH]1 | 2.1 µM | 46.6 | 99.2 µM |
| CCOC(=O)c1cc2c(ccn3cc(Br)nc23)[nH]1 | 13.1 µM | > 7.6 | > 100 µM |
| CCOC(=O)c1cc2c(ccn3ccnc23)[nH]1 | 5 µM | > 20 | > 100 µM |
| CCOC(=O)c1cc2c(ccn3cc(C(C)C)nc23)[nH]1 | 23.1 µM | > 4.3 | > 100 µM |
| Cc1cn2ccc3[nH]c(CO)cc3c2n1 | 43.9 µM | > 2.3 | > 100 µM |
| CCOC(=O)c1cc2c(ccn3c(Br)c(C)nc23)[nH]1 | 78.9 µM | > 1.3 | > 100 µM |
| CCOC(=O)c1cc2c(ccn3c(Br)cnc23)[nH]1 | 14.1 µM | > 7.1 | > 100 µM |
| CCOC(=O)c1cc2c(ccn3cc(-c4ccccc4)nc23)[nH]1 | 3.7 µM | > 27.1 | > 100 µM |
| CCOC(=O)c1cc2c(ccn3cc(C(C)(C)C)nc23)[nH]1 | 50.3 µM | > 2 | > 100 µM |
| CCOC(=O)c1cc2c(ccn3cc(-c4cccc(OC)c4)nc23)[nH]1 | 0.4 µM | 71 | 31.1 µM |
| CCOC(=O)c1cc2c(ccn3cc(C)nc23)n1C | 5.6 µM | > 17.9 | > 100 µM |
| CCOC(=O)c1cc2c(ccn3cc(CO)nc23)[nH]1 | 53.8 µM | > 1.9 | > 100 µM |
